Assay results taken from patent publication US11986457B2, “Nutraceutical compositions” (SpecNova LLC, priority 2021, dated 2024).

Biological target: Human Dopamine Transporter (DAT) (Homo sapiens, UniProt Q01959)
Assay: Human Dopamine Transporter (DAT) Binding (Antagonist Radioligand) Assay
Details: for level of inhibition in the dopamine transporter inhibitory assay: statement in words in the description
Protocol: Human Dopamine Transporter (DAT) Binding (Antagonist Radioligand) Assay
Nonspecific binding is determined in the presence of 10 μM BTCP. Following incubation, the samples are filtered rapidly under vacuum through glass fiber filters (GF/B, Packard) presoaked with 0.3% PEI and rinsed several times with ice-cold 50 mM Tris-HCl using a 96-sample cell harvester (Unifilter, Packard). The filters are dried then counted for radioactivity in a scintillation counter (Topcount, Packard) using a scintillation cocktail (Microscint 0, Packard). The results are expressed as a percent inhibition of the control radioligand specific binding.

Human Dopamine Transporter (DAT), sequence (Q01959 whole entry): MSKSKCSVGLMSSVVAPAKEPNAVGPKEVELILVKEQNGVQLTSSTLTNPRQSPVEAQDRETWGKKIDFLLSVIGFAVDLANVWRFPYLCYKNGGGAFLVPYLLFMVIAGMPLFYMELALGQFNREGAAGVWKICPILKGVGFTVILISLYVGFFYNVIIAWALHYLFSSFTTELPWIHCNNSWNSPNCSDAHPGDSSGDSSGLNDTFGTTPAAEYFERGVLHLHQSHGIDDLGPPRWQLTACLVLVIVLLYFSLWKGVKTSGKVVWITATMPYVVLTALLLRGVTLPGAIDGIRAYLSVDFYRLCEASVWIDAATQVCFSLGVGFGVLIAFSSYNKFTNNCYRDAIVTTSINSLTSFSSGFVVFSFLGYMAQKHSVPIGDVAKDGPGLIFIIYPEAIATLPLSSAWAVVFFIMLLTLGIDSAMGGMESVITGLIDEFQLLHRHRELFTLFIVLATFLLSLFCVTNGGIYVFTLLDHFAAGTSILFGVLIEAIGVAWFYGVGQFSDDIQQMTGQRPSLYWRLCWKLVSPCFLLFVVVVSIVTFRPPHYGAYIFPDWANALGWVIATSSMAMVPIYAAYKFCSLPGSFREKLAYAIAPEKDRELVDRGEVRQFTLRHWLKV

| SMILES | level of inhibition in the dopamine transporter inhibitory assay | % of Control Specific Binding (mean of two tests) ([3H]BTCP 4 nM radioligand, mean of two tests) |
| --- | --- | --- |
| OC[C@@H](O)[C@@H](/C=C/c1ccc(O)cc1)c1ccc(O)c(O)c1 [Sequirin C, 4-[(1S,2E)-1-[(1S)-1,2-dihydroxyethyl]-3-(4-hydroxyphenyl)prop-2-en-1-yl]benzene-1,2-diol] | extremely high level of inhibition | – |
| OC[C@@H](O)[C@@H](/C=C/c1ccc(O)cc1)c1ccc(O)cc1 [Agatharesinol, (2S,3S,4E)-3,5-bis(4-hydroxyphenyl)pent-4-ene-1,2-diol] | extremely high level of inhibition | 4.6% |
| CC(C)=CCc1c(C2CCc3ccc(O)cc3O2)ccc(O)c1O (stereo in doubt) [Kazinol U, 4-[(2S)-7-hydroxy-3,4-dihydro-2H-chromen-2-yl]-3-(3-methylbut-2-enyl)benzene-1,2-diol] | high level of inhibition | – |
